Assay results as given in PMC12406258, “Uncovering the Unusual Inhibition Mechanism of a Trypanosome Alternative Oxidase Inhibitor Displaying Broad-Spectrum Activity against African Animal Trypanosomes” (Journal of Medicinal Chemistry, 2025).
Where “and” joins values, the source holds several entries; their conditions need not be identical. Equal entries are not always repeated. Where two headings read alike, the source gives them in different places.

Columns and labels:
T. brucei = test: DNA configuration by fluorescence microscopy after DAPI staining; assay type: cell-based; settings: 2 × EC50, by 24 h
Excerpt: To assess the cause of the apparent 24-h growth arrest visualized in Figure , we assessed the cellular DNA content by flow cytometry of fixed trypanosomes stained with the nucleic acid dye propidium iodide after RNase treatment. […] This indicates an inability to initiate new synthesis of nuclear DNA, while cells that already past that checkpoint were able to complete cell division. […] In T. brucei, the first phase of the cell cycle is the replication of the kinetoplast, before the subsequent duplication of the nucleus. Thus, at the start of the experiment (t = 0 h) an equal percentage of cells in the “compound 1” and “untreated control” cultures contained a single nucleus and kinetoplast (1N1K) or were in the initial stages of cell division with 2 kinetoplasts (1N2K) (Figure B). […] These observations strengthen our conclusion that treatment with 1 stops the initiation of a new cell division cycle, and specifically the replication of the kinetoplast that must precede nuclear DNA synthesis in trypanosomes. […]
The configuration of nuclei and kinetoplast DNA of treated and untreated T. brucei was visualized using a Vectashield mounting medium with the dye 4,6-diamidino-2-phenylindole (DAPI) (Vector Lab. CA, USA), as described. […] At least 500 cells were scored per slide for the number of kinetoplasts (K) and nuclei (N) as 1N1K, 1N2K, 2N2K, or other.

T. congolense WT = test: Drug sensitivity assay, T. congolense WT bloodstream forms; assay type: cell-based; settings: Trypanosoma congolense
Procedure: The susceptibilities of trypanosomes to compound 1 were determined as previously described using the resazurin (Alamar Blue) assay. Briefly, this protocol involves preparing a 96-well cell culture plate with a 100 μL serially diluted test compound (200 μM top concentration) in HMI-9 + 10% FBS (24 wells per control drug or test compound, with the 24th well serving as drug-free). This is followed by adjusting the cell density of mid-log-phase trypanosome cultures to the required concentration of 2 × 10^5 cells/mL (2 × 10^4 cells/well). Then, 100 μL of the adjusted cell density/culture was added to all 24 wells in the plate, then incubating trypanosomes and test compound for 48 h followed by the addition of 20 μL filter-sterilized resazurin solution prepared by adding 25 mg resazurin sodium salt to 200 mL filter-sterilized PBS. This was followed by a further 24 h of incubation. All incubations were carried out at 37 °C with 5% CO2. […] Fluorescence was measured in the 96-well plates with a FLUOstar Optima (BMG Labtech, Durham, NC, USA) at wavelengths of 544 nm for excitation, 590 for emission, and a gain of 1250. EC50 values were calculated using GraphPad Prism 9.0 software via nonlinear regression with an equation for a sigmoidal dose–response curve with variable slope (GraphPad Software Inc., San Diego, CA, USA).

[1] = system: Human Embryonic Kidney (HEK) 293-T cells; test: Cytotoxicity assay using Human Embryonic Kidney (HEK) 293 cells
Procedure: In brief, HEK cells were grown in a culture made of 500 mL Dulbecco’s Modified Eagle’s Medium (DMEM) (Sigma), 50 mL New-born Calf Serum (NBCS) (Gibco), 5 mL L-Glutamax (200 mM, Gibco), and 5 mL Penicillin/ [...

T. evansi WT = test: Resazurin-based drug sensitivity assay, T. evansi WT; assay type: cell-based
Procedure: (§1) Other Trypanosoma species used in this study include T. evansi AntTat 3/3 (Wild-type); and T. equiperdum BoTat 1 (Bordeaux trypanozoon antigenic type 1) P (wild-type). All the trypanosomes were used only as bloodstream trypomastigotes and cultured in the standard Hirumi’s Modified Iscove’s medium #9 (HMI-9), supplemented with 10% heat-inactivated Fetal Bovine Serum (FBS), 14 μL/L β-mercaptoethanol, and 3.0 g sodium hydrogen carbonate per liter of medium (pH 7.4). Trypanosomes were cultured in vented flasks at 37 °C in a 5% CO2 atmosphere.
(§2) Briefly, this protocol involves preparing a 96-well cell culture plate with a 100 μL serially diluted test compound (200 μM top concentration) in HMI-9 + 10% FBS (24 wells per control drug or test compound, with the 24th well serving as drug-free). This is followed by adjusting the cell density of mid-log-phase trypanosome cultures to the required concentration of 2 × 10^5 cells/mL (2 × 10^4 cells/well). […] All incubations were carried out at 37 °C with 5% CO2. […] EC50 values were calculated using GraphPad Prism 9.0 software via nonlinear regression with an equation for a sigmoidal dose–response curve with variable slope (GraphPad Software Inc., San Diego, CA, USA).

T. b. brucei SUR10 = test: microbe, parasite or virus in culture; assay type: cell-based; settings: Trypanosoma brucei, read-out: SUR10 EC50
[2] = system: T. b. brucei WT (s427) trypomastigotes; test: microbe, parasite or virus in culture; assay type: cell-based; settings: Trypanosoma brucei
Procedure: as §1, §2

Stability in PBS buffer = settings: 37 °C
T. brucei wild type s427 = test: Growth curve of T. brucei s427, continuous or 24 h limited exposure; assay type: cell-based; settings: 2 × and 5 × EC50
Procedure: The results in Figure , which show the growth curve of T. brucei wild type s427 grown in the continuous presence or after a limited exposure (24 h) to 1, indicate that the growth pattern of cells with long-time exposure was similar to that of cells with limited exposure to 1. The compound seemed to rapidly induce an apparent growth inhibition, after approximately 4h, followed by a steep decline in population from 30 h. […] Thus, the effects of 1 on trypanosomes are irreversible before population decline begins.
2 Growth curve of T. brucei wild type s427 grown in either the continuous presence of 1 at indicated concentrations (filled symbols) or with the drug washed out with fresh media after 24 h (open symbols; the arrows indicate the time when compound 1 was withdrawn), or untreated (no drug control). The results presented are those of three biological repeats. Error bars represent SD of the biological replicates.

T. brucei aqp1-3 null = test: microbe, parasite or virus in culture; assay type: cell-based, T. b. brucei; settings: Trypanosoma brucei, read-out: aqp1-3 null EC50
Procedure: as §1, §2

T. brucei B48 = test: microbe, parasite or virus in culture; assay type: cell-based, T. b. brucei; settings: Trypanosoma brucei, read-out: T. brucei B48 EC50
Procedure: as §1, §2

Cc1cc(O)ccc1C(=O)OCCCCCCCCCCCCCC[P+](c1ccccc1)(c1ccccc1)c1ccccn1.[Br-] [Compound 1, {14-[(4-Hydroxy-2-methylbenzoyl)-oxy]-tetradecyl}-diphenyl(pyridin-2-yl)-Phosphonium Bromide]
Percentage of 1N1K cells (T. brucei): 100%
EC50 (T. congolense WT): 41 ± 7 nM
SI (selectivity index) for T. congolense [1]: 182
HEK EC50 (CC50, cytotoxicity) ([1]; HEK 293-T cells, n = 3): 7490 nM and 7490 ± 100 nM
HEK SI (selectivity index) ([1]; SI = CC50 of HEK/EC50 of T. b. b WT (no glycerol)): 2385
EC50 (T. evansi WT): 1.2 ± 0.1 nM
EC50 (T. b. brucei SUR10): 3.6 ± 0.9 nM
EC50 ([2]; read-out: T. b. brucei WT (+5 mM glycerol) EC50, incubated in the presence of 5 mM glycerol): 1.4 ± 0.5 nM
EC50 ([2]; s427, no glycerol, n ≥ 4, read-out: T. b. brucei WT (no glycerol) EC50): 3.1 ± 0.6 nM
Stability in PBS buffer (Stability in PBS buffer): ≥ 1 h
Time from which population steeply declines (T. brucei wild type s427): ≥ 30 h
Time to apparent growth inhibition (T. brucei wild type s427): approximately 4 h
EC50 (T. brucei aqp1-3 null): 1.2 ± 0.13 nM
EC50 (T. brucei B48): 2.5 ± 0.1 nM
